Assay results from the supplement of paper PMC10307832.

Experiments:
Test in all cases: relative viability (nuclei count vs DMSO), 5 days (fraction); higher = more cells survive
[1] = compound: C1CC2=C(C1)C=C(C=C2)OC3=NC(=C4C(=N3)N(C=N4)CC5=CC=C(C=C5)C6=CC=CC=C6)N[C@@H](CC7=CC=CC=C7)CO [QS11] + Cc1cc(Nc2cc(N3CCN(C)CC3)nc(Sc3ccc(NC(=O)C4CC4)cc3)n2)n[nH]1 [Tozasertib] (partner 0.1 µM)
Summary of the method: (§1)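 Relative viability equals treated-well nuclei counts divided by vehicle-well nuclei counts. Counts came from 4× images of lung cancer cell lines grown in 1536-well plates for 5 days after pin-tool dosing on the day after seeding. Dosing used one drug alone or a fixed anchor-drug dose plus five library-drug doses (not always all listed) in √10 steps, and values are medians of duplicate plates.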

[2] = compound: C1CC2=C(C1)C=C(C=C2)OC3=NC(=C4C(=N3)N(C=N4)CC5=CC=C(C=C5)C6=CC=CC=C6)N[C@@H](CC7=CC=CC=C7)CO [QS11] + O=C(CCCCCCC(=O)Nc1ccccc1)NO [Vorinostat] (partner 1 µM)
Summary of the method: as §1

[3] = compound: CC1=C(C=C(C=C1)NC(=O)C2=CC(=CC=C2)C(C)(C)C#N)NC3=CC4=C(C=C3)N=CN(C4=O)C [AZ628] + C[C@]1(O)C[C@@H](c2nc(-c3ccc4ccc(-c5ccccc5)nc4c3)c3c(N)nccn32)C1 [Linsitinib] (partner 1 µM)
Summary of the method: as §1

[4] = compound: C[As](C)SC[C@H](NC(=O)CC[C@H](N)C(=O)O)C(=O)NCC(=O)O [Darinaparsin] + N=C(N)NC(=N)NCCc1ccccc1 [Phenformin] (partner 250 µM)
Summary of the method: as §1

Cell Line | relative viability ([1]; first compound 0.08 µM) | relative viability ([1]; first compound 0.253 µM) | relative viability ([1]; first compound 0.8 µM) | relative viability ([1]; first compound 2.53 µM) | relative viability ([1]; first compound 8 µM) | relative viability ([2]; first compound 0.08 µM) | relative viability ([2]; first compound 0.253 µM) | relative viability ([2]; first compound 0.8 µM) | relative viability ([2]; first compound 2.53 µM) | relative viability ([2]; first compound 8 µM) | relative viability ([3]; first compound 0.08 µM) | relative viability ([3]; first compound 0.253 µM) | relative viability ([3]; first compound 0.8 µM) | relative viability ([3]; first compound 2.53 µM) | relative viability ([3]; first compound 8 µM) | relative viability ([4]; first compound 0.08 µM) | relative viability ([4]; first compound 0.8 µM) | relative viability ([4]; first compound 2.53 µM) | relative viability ([4]; first compound 8 µM)
NCI-H2009 | 0.756 | 0.789 | 0.595 | 0.58 | 0.434 | 0.757 | 0.699 | 0.635 | 0.707 | 0.603 | 1.06 | 0.973 | 0.724 | 1.05 | 0.358 | 0.511 | 0.52 | 0.475 | 0.55
NCI-H1993 | 0.563 | 0.573 | 0.605 | 0.669 | 0.616 | 0.972 | 0.629 | 0.776 | 0.983 | 0.498 | 0.761 | 0.59 | 0.716 | 0.824 | 0.711 | 0.523 | 0.441 | 0.524 | 0.508
COR-L23 | 0.17 | 0.177 | 0.137 | 0.156 | 0.141 | 0.397 | 0.334 | 0.469 | 0.301 | 0.282 | 1.05 | 0.886 | 0.986 | 0.81 | 0.492 | 0.544 | 0.405 | 0.379 | 0.566
HOP-62 | 0.363 | 0.442 | 0.31 | 0.281 | 0.302 | 0.556 | 0.564 | 0.533 | 0.416 | 0.447 | 1.09 | 0.919 | 1.06 | 1.17 | 0.535 | 0.964 | 0.759 | 0.494 | 0.8
NCI-H1437 | 0.44 | 0.45 | 0.398 | 0.344 | 0.304 | 0.894 | 0.751 | 0.616 | 0.609 | 0.39 | 0.966 | 0.846 | 0.958 | 0.779 | 0.848 | 0.327 | 0.298 | 0.358 | 0.281
HCC-366 | 0.133 | 0.0935 | – | 0.0603 | 0.0521 | 0.353 | 0.283 | – | 0.152 | 0.161 | 0.551 | 0.454 | 0.426 | 0.543 | 0.114 | 0.65 | 0.649 | 0.588 | 0.665
NCI-H1755 | 0.617 | 0.555 | 0.454 | 0.515 | 0.411 | 0.748 | 0.714 | 0.605 | 0.515 | 0.655 | 0.993 | 0.956 | 0.941 | 0.937 | 0.883 | 0.671 | 0.598 | 0.545 | 0.632
NCI-H3122 | 0.45 | 0.496 | – | 0.374 | 0.201 | 1 | 1.21 | – | 1.03 | 0.584 | 0.931 | 0.83 | 0.686 | 0.701 | 0.388 | 0.435 | 0.328 | 0.378 | 0.411
SW 1573 | 0.235 | 0.138 | 0.186 | 0.212 | 0.197 | 0.912 | 0.629 | 0.52 | 0.296 | 0.253 | 0.599 | 0.725 | 0.661 | 0.632 | 0.412 | 0.438 | 0.359 | 0.378 | 0.37
NCI-H2085 | 0.803 | 0.77 | 0.479 | 0.531 | 0.467 | 0.743 | 0.72 | 0.699 | 0.912 | 0.806 | 0.851 | 0.939 | 0.972 | 0.879 | 0.781 | 0.852 | 0.797 | 0.706 | 0.747
NCI-H727 | 0.58 | 0.602 | 0.539 | 0.647 | 0.511 | 1.28 | 1.16 | 1.29 | 1.07 | 1.37 | 0.194 | 0.2 | 0.225 | 0.282 | 0.201 | 0.405 | 0.416 | 0.569 | 0.475
NCI-H2405 | 0.752 | 0.699 | 0.725 | 0.758 | 0.899 | 1.12 | 0.957 | 0.766 | 1.06 | 0.974 | 0.463 | 0.646 | 0.477 | 0.387 | 0.409 | 0.407 | 0.377 | 0.415 | 0.405
NCI-H1666 | 0.61 | 0.532 | 0.515 | 0.521 | 0.383 | 1.04 | 1.09 | 0.924 | 0.713 | 0.73 | 0.809 | 0.57 | 0.551 | 0.753 | 0.553 | 0.623 | 0.545 | 0.617 | 0.575
BEN | 0.441 | 0.529 | 0.504 | 0.485 | 0.486 | 0.568 | 0.528 | 0.528 | 0.688 | 0.647 | 1.1 | 0.864 | 0.793 | 0.903 | 0.772 | 0.263 | 0.268 | 0.263 | 0.265
HARA | 0.0847 | 0.117 | – | 0.0916 | 0.102 | 0.498 | 0.565 | – | 0.506 | 0.431 | 0.774 | 0.847 | 0.888 | 0.934 | 0.309 | 0.542 | 0.416 | 0.38 | 0.728
RERF-LC-KJ | 0.521 | 0.429 | 0.42 | 0.274 | 0.274 | 0.643 | 0.628 | 0.523 | 0.664 | 0.566 | 0.799 | 0.874 | 0.841 | 0.855 | 0.7 | 0.495 | 0.447 | 0.369 | 0.434
